Measurements reported in article PMC6196658, “Activity of Thioallyl Compounds From Garlic Against Giardia duodenalis Trophozoites and in Experimental Giardiasis” (Frontiers in Cellular and Infection Microbiology, 2018).
≈ marks a conversion by molar mass, not a printed value. Where “and” joins values, the source holds several entries; their conditions need not be identical. Equal entries are not always repeated. Where two headings read alike, the source gives them in different places.

How the values were obtained:
[1] = tested on: G. duodenalis trophozoites; experiment: In vitro susceptibility, direct cell count (DCC); format: cell-based, Giardia duodenalis (WB strain); details: 24 h exposure
[2] = tested on: G. duodenalis trophozoites; experiment: In vitro susceptibility, FDA-PI staining; format: cell-based, Giardia duodenalis (WB strain); details: 24 h exposure
[3] = tested on: thiol groups exposed in G. duodenalis trophozoite proteins; experiment: Thiol-modifying activity (inhibition of thiol-DTNB complexes); format: biochemical, Giardia duodenalis; details: 100 μg soluble trophozoite protein, 10 min 37°C, DTNB 412 nm
Description: The technique reported by Lawson and Wang ([1993]) was followed. In these assays trophozoites were collected from 60 mL flasks, washed 3 times with PBS and resuspended in 500 μL PBS containing a 1:12.5 dilution of a commercial mixture of protease inhibitors (Complete^TM, Roche Diagnostics GmbH, Indianapolis, IN, USA) and lysed by sonication at 12 microns/60% amplitude (Ultrasonic apparatus Sonic UVX1130PB). Soluble proteins were recovered by centrifugation at 15,400 × g for 30 min at 4°C and protein concentration was determined by the Bradford technique. These samples were adjusted to a concentration of 1 mg/mL. Reactions were carried out in 1.5 mL microcentrifuge tubes with a mixture of 100 μg protein (100 μL) and NaH2PO4 45 mM pH 7.0 mM (800 μL) to which increasing volumes of TACs stocks or a positive control with the thiol derivatizing agent MMTS prepared at 50 mM in the same buffer, were added and total volume was adjusted to 1 mL. After incubation for 10 min at 37°C, 100 μL of 1.5 mM dithionitrobenzoic acid (DTNB, Ellman's reagent) were added to each tube and following incubation for 10 min at room temperature the absorbances (yellow solutions) were recorded at 412 nm (Smart Spec 3000^TM, Bio-Rad, Hercules, CA, USA). A calibration curve was obtained using increasing volumes (0–100 μL) of 15.5 mM cysteine instead protein extracts and the maximal blocking concentration (MBC) corresponding to a complete absence of thiol-DTNB complexes produced by TACs were calculated using the least-square method (Microsoft Excel^TM).

[4] = tested on: cysteine protease activities in trophozoite lysates; experiment: Proteolytic activity assay (gelatin zymogram); format: biochemical, Giardia duodenalis; details: 3.5 mM; bands 110, 60, 75 and 25 kDa
Description: Trophozoite lysates were prepared as mentioned above except that cell lysis was carried out by sonication in 1.5 mL microcentrifuge tubes under ice bath using eight 15-s pulses at 80% amplitude with resting periods of 30 s (Ultrasonic Processor mod. CV19). Protein concentration was adjusted to 2 mg/mL and aliquoted in 25 μL fractions that were incubated for 30 min room temperature with 2–5 μL stock solutions of representative TACs (ALC, DADS, and AM). The reaction mixtures were diluted in Laemmli's sample buffer, loaded in wells of 10% acrylamide-02% gelatin slab gels and these were electrophoretically analyzed using 80 V/4°C. After this, gels were incubated in a solution of triton X-100 2.5% (v/v) in water for 1 h and washed 3 times with distilled water. Bands with proteolytic activity were detected as follows: gels were incubated in acetate buffer pH 5.5 with 1 mM DTT for 16 h at 37°C under constant stirring, washed 3 times with distilled water and stained with Coomassie blue (BioRad) for 2 h at 37°C under constant stirring. Finally, gels were washed with distilled water and incubated with a solution of 5% acetic acid/40% methanol (v/v). Gel images were documented with a UVP High Performance Ultraviolet Transilluminator and software Launch DocItLS.

[5] = tested on: G. duodenalis trophozoites; experiment: Annexin V-PI flow cytometry (apoptosis/necrosis); format: cell-based, Giardia duodenalis; details: 0.6 mM (MLC), 24 h
Description: The identification and quantitative determinations of trophozoites were carried out as follows: (a) apoptosis or necrosis were determined using anti-annexin V-fluorescein isothiocyanate (FITC) antibodies or PI as respective markers, (b) oxidative stress was determined by formation of reactive oxygen species (ROS) with the fluorescent ROS-complexing agent 5-(and 6)-carboxy 2′7′-dichlorodihydrofluorescein diacetate (H2DCFDA), and (c) determination of trophozoites cell cycle stages (G1, S, G2, and G2/M) after exposure to ALC or to a control drug (albendazole, ABZ) was carried out as previously described (Martínez-Espinosa et al., [2015]). In all these assays 20,000 cells per sample were recorded.

[6] = tested on: G. duodenalis trophozoites; experiment: Electron microscopy of exposed trophozoites; format: cell-based, Giardia duodenalis
Description: Trophozoites were exposed to TACs in two ways: under long (24 h, standard toxicity) and short (3 h, acute toxicity) incubations at 37°C using concentrations corresponding to the experimental MLC (as determined at 24 h) and twofold the MLC, respectively. For scanning electron microscopy, PBS-washed parasites were fixed with 2.5% glutaraldehyde in 0.1 M sodium cacodylate buffer, pH 7.2, dehydrated under increasing concentrations of ethanol, critical-point dried using a Samdri apparatus, gold coated in an ion sputtering device (JEOL-JFC-1100), and examined with a JEOL 35-C scanning electron microscope. In transmission electron microscopy (TEM) studies, washed cells were fixed with 2.5% glutaraldehyde and post-fixed with 1% osmium tetroxide in cacodylate buffer. Following sequential dehydration in ethanol, samples were embedded with epoxy resins.

Spironucleus vortens = tested on: Spironucleus vortens; design: method as in Millet et al., 2011; details: ref Millet et al., 2011; cited from earlier work
Eimeria tenella = tested on: Eimeria tenella; design: method as in Alnassan et al., 2015; details: ref Alnassan et al., 2015; cited from earlier work
Plasmodium berghei = tested on: Plasmodium berghei; design: method as in Coppi et al., 2006; details: mice, ref Coppi et al., 2006, cited from earlier work
[7] = rat, no reference given; cited from earlier work
[8] = Storage stability of allicin; details: 1.5% (w/v) in water, 1 mL aliquots at −70°C
Description: For stabilization and storage of ALC, the oily product was resuspended in water at 1.5% (w/v) and kept in 1 mL aliquots at −70°C until analyzed and used.

[9] = Tolerability and lethality in gerbils
Description: Eighty male Mongolian gerbils (M. unguiculatus) 6–10 weeks old, weighted 45–60 g and sentinel-checked gerbils free of intestinal parasites were kept in individual cages and distributed in 12 groups of 6 animals per treatment and experimental infections were performed as described elsewhere (Argüello-García and Ortega-Pierres, [1997]). In brief, animals were inoculated intragastrically with 1 × 10^6 G. duodenalis trophozoites in 500 μl sterile PBS per os using gavage under ether anesthesia. Control animals received 500 μl sterile PBS each. […] As additional control, one group of animals received MTZ (38.4 mg/kg at single or double dose). […] Treatment efficacy was evaluated by determining the presence or absence of trophozoites in intestinal contents of control and treated gerbils at day 13 post-infection. […] Supernatant was collected and centrifuged at 750 × g for 10 min at 4°C, cell pellet was resuspended in 1 mL PBS and trophozoites were counted using a haemocytometer. Gerbils were scored as cured if no trophozoites were recovered from infected animals.

Structure (SMILES): C=CCS[S+]([O-])CC=C (stereo not drawn) [ALC, diallyl thiosulfinate]
- MLC (mM) ±SD [1]: 1.08 mM (≈ 175 µg/mL)
- MLC (mM) ±SD ([1]; listed as Allicin): 1.088 ± 0.24 mM (≈ 177 µg/mL)
- IC50 ([1]; Giardia duodenalis): 369 ± 21 µM
- MLC (mM) ±SD [2]: 1.285 ± 0.18 mM (≈ 209 µg/mL)
- IC50 ([2]; Giardia duodenalis): 536 ± 103 µM
- MBC (maximal blocking concentration) ± SD [3]: 93.8 mmol/mg protein and 93.84 ± 12.8 mmol/mg protein
- effect on proteolytic bands in zymogram [4]: strongly inhibited
- R4 cells positive for early apoptosis (annexin V+) [5]: 10.2%
- surface damage by scanning electron microscopy ([6]; 600 μM, 24 h (standard toxicity)): membrane blebbing process with profuse holes
- intracellular damage by transmission electron microscopy ([6]; standard (600 μM 24 h) or acute (1.2 mM 3 h) protocol): complete loss of electron density of the intracellular elements and the integrity of plasma membrane
- IC50 (Spironucleus vortens): > 1120 µM
- IC99 (Eimeria tenella): 11.1 mM
- mortality (Plasmodium berghei; 4 daily doses of 8 mg/kg intravenously): markedly reduced mortality
- mortality (Plasmodium berghei; 4 daily doses of 9 mg/kg orally): markedly reduced mortality
- oral lethality [7]: 980 mg/kg
- time of retained full activity on storage [8]: up to 6 months
- irritation in intestinal epithelium ([9]; 276 mg/kg single dose, treated non-infected animals, surgical examination): noticeable irritation in intestinal epithelium
- lethal dose ([9]; intragastric route, gerbils): > 400 mg/kg
